Patent publication US6630477B1, “Therapeutic nucleoside compound” (SmithKline Beecham Corporation, priority 1999, dated 2003)

Assays:
Hepatitis B virus = experiment: Hepatitis B Virus Activity (method of Jansen et al. 1993); format: cell-based; details: n=2, read-out: IC50 against Hepatitis B virus
Description: (§1) The activity of compounds against Hepatitis B Virus was assessed as described in Jansen, R. et al., Antimicrobial Agents and Chemotherapy, Vol. 37, No. 3, pp. 441-447, 1993.

[1] = Cytotoxicity (reported with the Hepatitis B virus activity test); format: cell-based
Description: as §1

Which results are given for `Nc1ncnc2c1ncn2[C@@H]1C=C[C@H](CO)C1` [(+)-(1R,4S)-4-(6-Amino-9H-purin-9-yl)-2-cyclopentene-1-methanol]?
melting point: 195 to 200 °C; IC50 (Hepatitis B virus): 1000 nM; Cytotoxicity [1]: > 200 µM
